Reference: patent publication US8809316B2, “Use of immunosuppressant compounds in a new indication” (Novartis AG, priority 2008, dated 2014)

Legend:
Assay type in all cases: in vivo, Lewis rats
[1] = tested on: sciatic nerves of EAN rats; experiment: Immunohistochemistry of inflammatory cell infiltration in sciatic nerves of EAN rats; conditions: for Area of immunoreactivity/area of sciatic nerves (%) for B cells (OX22+) / Area of immunoreactivity/area of sciatic nerves (%) for Macrophages (ED1+) / Area of immunoreactivity/area of sciatic nerves (%) for T cells (W3/13+): Day 16, EAN rats
Description: (§1) To evaluate inflammatory cell infiltration and pathological changes in the PNS, five compound A-treated rats (at both concentrations) and five control EAN rats from Day 16 were sacrificed. Rats were deeply anaesthetized with ether and perfused intracardially with 4° C., 4% paraformaldehyde in PBS. Left and right sciatic nerves were quickly removed and post-fixed in 4% formaldehyde overnight at 4° C. Sciatic nerves were cut into two equally long segments, embedded in paraffin, serially sectioned (3 μm) and mounted on silan-covered slides.
After dewaxing, cross-sections of sciatic nerves were boiled (in a 600 W microwave oven) for 15 min in citrate buffer (2.1 g sodium citrate/L, pH 6). Endogenous peroxidase was inhibited with 1% H2O2 in methanol for 15 min. Sections were incubated with 10% normal pig serum (Biochrom, Berlin, Germany) to block non-specific binding of immunoglobulins and then with the following monoclonal antibodies: W3/13 (1:50; Serotec, Oxford, UK) for T lymphocytes, OX22 (1:200; Serotec, Oxford, UK) for B cells, ED1 for activated macrophages (1:100; Serotec, Oxford, UK). Antibody binding to tissue sections was visualized with biotinylated IgG F(ab)2 secondary antibody fragments (rabbit anti-mouse or rabbit anti-goat; 1:400; DAKO, Hamburg, Germany). Subsequently, sections were incubated with a Streptavidin-Avidin-Biotin complex (DAKO, Hamburg, Germany), followed by development with diaminobenzidine (DAB) substrate (Fluka, Neu-Ulm, Germany). Finally, sections were counterstained with Maier's Hemalum.
To evaluate immunostaining data, the percentages of areas of immunoreactivity (IR) to areas of sciatic nerve cross-sections were calculated. Images of sciatic nerve cross-sections were captured under 50× magnification using Nikon Coolscope (Nikon, Dusseldorf, Germany) with fixed parameters. Images were analyzed using MetaMorph Offline 7.1 (Molecular Devices, Toronto, Canada). Areas of IR were selected by colour threshold segmentation and all parameters were fixed for all images. Areas of sciatic nerve cross-sections were manually selected. For each EAN rat, four cross-sections from root and middle levels of both sides were analyzed. Results were given as arithmetic means of percentages of areas of IR to areas of sciatic nerve cross-sections and standard errors of means (SEM).

[2] = tested on: sciatic nerves of EAN rats; experiment: Luxol Fast Blue (LFB) staining, mean histological score of sciatic nerves of EAN rats; conditions: for Mean Histological Score: LFB staining, scale 0-3, sciatic nerves, Day 16
Description: as §1
The routine Luxol Fast Blue (LFB) staining was applied to show myelin. Histological changes between Compound A and control EAN rats were compared by an established semi-quantitative method. Briefly, four cross-sections from root and middle level of both sides of EAN rats were analyzed. All perivascular areas present in cross-sections were evaluated by two observers unaware of the treatment, and the degree of pathological alteration was graded semiquantitatively on the following scale: 0=normal perivascular area; 1=mild cellular infiltrate adjacent to the vessel; 2=cellular infiltration plus demyelination in immediate proximity to the vessel; and 3=cellular infiltration and demyelination throughout the section. Results were given as mean histological score (Hartung et al., 1988).

[3] = tested on: Experimental Autoimmune Neuritis (EAN) rats; experiment: EAN clinical (neurological) score, suppressive treatment
Body weight of EAN rats = experiment: Body weight of EAN rats
[4] = 3 mg/kg intragastric once daily
[5] = 10 mg/kg intragastric once daily

Question: For `CCc1cc(/C(C)=N/OCc2ccc(C3CCCCC3)c(C(F)(F)F)c2)ccc1CN1CC(C(=O)O)C1` [Compound A, 1-{4-[1-(4-Cyclohexyl-3-trifluoromethyl-benzyloxyimino)-ethyl]-2-ethyl-benzyl}-azetidine-3-carboxylic acid], which “Area of immunoreactivity/area of sciatic nerves (%) for B cells (OX22+)” value [1, 4] is on record?
Answer: 0.025%

Question: What about the “Area of immunoreactivity/area of sciatic nerves (%) for Macrophages (ED1+)” value [1, 4] of the same compound?
Answer: 0.20%

Question: What about the “Area of immunoreactivity/area of sciatic nerves (%) for T cells (W3/13+)” value [1, 4] of the same compound?
Answer: 0.08%

Question: What about the “Area of immunoreactivity/area of sciatic nerves (%) for B cells (OX22+)” value [1, 5] of the same compound?
Answer: 0.021%

Question: What about the “Area of immunoreactivity/area of sciatic nerves (%) for Macrophages (ED1+)” value [1, 5] of the same compound?
Answer: 0.11%

Question: And the “Area of immunoreactivity/area of sciatic nerves (%) for T cells (W3/13+)” value [1, 5]?
Answer: 0.04%

Question: What about the “Infiltration of T cells, B cells and macrophages in sciatic nerves (in words)” value ([1]; EAN rats, Day 16) of the same compound?
Answer: significantly suppressed infiltration

Question: What about the “Mean Histological Score” value ([2]; 3 mg/kg) of the same compound?
Answer: 0.51

Question: And the “Mean Histological Score” value ([2]; 10 mg/kg)?
Answer: 0.25

Question: What about the “Mean histological scores measured by LFB staining (in words)” value ([2]; Compound A-treated versus control EAN rats) of the same compound?
Answer: markedly lower

Question: And the “Day of maximal neurological scores” value ([3]; days from immunisation, control maximum at Day 13)?
Answer: 15 Day

Question: And the “Day of full recovery of rats” value ([3]; days from immunisation, control recovered by Day 22)?
Answer: ≤ 19 days

Question: What about the “Day at which (greatly reduced) neurological signs were seen” value ([3]; days from immunisation, oral once daily until Day 22, control onset Day 9) of the same compound?
Answer: 14 Day

Question: And the “Effect on clinical signs of EAN (in words)” value ([3]; relative to the water/cmc vehicle, FIGS. 1A and 1B)?
Answer: almost prevented the development of clinical signs of EAN

Question: What about the “Weight loss during disease (in words)” value (Body weight of EAN rats; higher dosage suspension (10 mg/kg), FIG. 2B) of the same compound?
Answer: small weight loss between days 11 and 12, followed by weight gain

Question: What about the “Weight loss during disease (in words)” value (Body weight of EAN rats; lower compound A suspension (3 mg/kg), Day 11 to 16, FIG. 2B) of the same compound?
Answer: reduced level of weight loss
